The record followed here is article PMC8069214, “Synthesis, Biological Evaluation, and Molecular Modeling of Aza-Crown Ethers” (Molecules, 2021).

What is called melting point is the temperature, or range, at which the solid turns liquid.

One data set has as its target T1, FPR2 (Homo sapiens, UniProt P25090).
T1 construct: expressed in transfected cells
T1 sequence (P25090 1-351): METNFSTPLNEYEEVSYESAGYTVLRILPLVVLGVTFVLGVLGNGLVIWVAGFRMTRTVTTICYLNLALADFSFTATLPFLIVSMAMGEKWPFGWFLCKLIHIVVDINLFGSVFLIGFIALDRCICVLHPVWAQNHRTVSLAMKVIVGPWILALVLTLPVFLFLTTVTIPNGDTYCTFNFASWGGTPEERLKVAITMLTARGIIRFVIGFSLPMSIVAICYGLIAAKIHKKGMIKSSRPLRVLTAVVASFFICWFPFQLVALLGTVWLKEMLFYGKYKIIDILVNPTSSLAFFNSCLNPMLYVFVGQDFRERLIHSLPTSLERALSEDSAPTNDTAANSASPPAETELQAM
Put plainly: Inhibition of WKYMVM-induced [Ca2+]i flux in FPR2-HL60 cells. To be noted: 10 min preincubation, 5 nM WKYMVM; N.A. = no activity at < 50 µM; read-out: FPR1/FPR2 Agonist-Induced Δ[Ca^2+]i FPR2-HL60 IC50. The class given is cell-based. As to the method:
(§1) Since these compounds elevated neutrophil [Ca^2+]i, and cytosolic Ca^2+ flux is a key component of neutrophil activation, we evaluated if they could alter neutrophil activation by FPR1 or FPR2 agonists. Neutrophils and FPR-transfected HL60 cells were preincubated for 10 min with crown ether compounds, and [Ca^2+]i flux was stimulated with either an FPR1 agonist (fMLF for human neutrophils and FPR1-HL60 cells) or an FPR2 agonist (WKYMVM for FPR2-HL60 cells).
(§2) Human promyelocytic leukemia HL60 cells stably transfected with FPR1 (FPR1-HL60 cells) or FPR2 (FPR2-HL60 cells) (kind gifts from Dr. Marie-Josephe Rabiet, INSERM, Grenoble, France) were cultured in RPMI 1640 medium supplemented with 10% heat-inactivated fetal calf serum, 10 mM HEPES, 100 μg/mL streptomycin, 100 U/mL penicillin, and G418 (1 mg/mL). Although stable cell lines are cultured under G418 selection pressure, G418 may affect some assays, so it was removed in the last round of culture before assays were performed.
(§3) Changes in neutrophil intracellular Ca^2+ concentrations ([Ca^2+]i) were measured with a FlexStation 3 scanning fluorometer (Molecular Devices, Sunnyvale, CA, USA). Briefly, human neutrophils were suspended in HBSS^−, loaded with Fluo-4AM at a final concentration of 1.25 μg/mL, and incubated for 30 min in the dark at 37 °C. After dye loading, the cells were washed with HBSS^−, resuspended in HBSS^+, separated into aliquots, and loaded into the wells of flat-bottom, half-area well black microtiter plates (2 × 10^5 cells/well). To assess the direct effects of test compounds on Ca^2+ flux, the compounds were added to the wells (final concentration of DMSO was 1%), and changes in fluorescence were monitored (λex = 485 nm, λem = 538 nm) every 5 s for 240 s at room temperature after addition of the test compound. To evaluate inhibitory effects of the compounds on FPR1/FPR2-dependent Ca^2+ flux, the compounds were added to the wells (final concentration of DMSO was 1%) with cells (human neutrophils or FPR1/FPR2 HL60 cells). The samples were preincubated for 10 min, followed by addition of 5 nM fMLF (for human neutrophils or FPR1-HL60 cells) or 5 nM WKYMVM (for FPR2-HL60 cells). The maximum change in fluorescence, expressed in arbitrary units over baseline, was used to determine the agonist response. Responses were normalized to the response induced by 5 nM fMLF or 5 nM WKYMVM, which were assigned as 100%. Curve fitting (at least five or six points) and calculation of median effective concentration values (EC50 or IC50) were performed by nonlinear regression analysis of the dose–response curves generated using Prism 7 (GraphPad Software, Inc., San Diego, CA, USA). Efficacy was determined by comparing individual responses activated by the test compounds to that induced by a positive control (5 nM fMLF), which was assigned a value of 100%.

The subject of a further data set is human neutrophils. Put plainly: Ca2+ mobilization assay, direct effect of compounds on [Ca2+]i. The class given is cell-based. As to conditions: Neutrophil; for Emax: % of the response induced by 5 nM fMLF, read-out: Efficacy (converted).
Text: We screened 24 aza- and diaza-crown ethers with adamantyl, adamantylalkyl, aminomethylbenzoyl, and ε-aminocaproyl substituents for their Ca^2+ ionophore effects in human neutrophils. To monitor cytoplasmic Ca^2+ levels, we used the fluorescent Ca^2+ indicator Fluo-4, which is a dynamic single-wavelength fluorescent Ca^2+ indicator. Increases in fluorescence intensity (λex = 485 nm, λem = 538 nm) reflect the rise in cytoplasmic Ca^2+ concentrations ([Ca^2+]i; see Materials and Methods).
as §3
(Calcium assays in cells follow changes in intracellular calcium, usually with a dye or a luminescent sensor.)

For another data set, the target named is T2, FPR1 (Homo sapiens, UniProt P21462).
T2 construct: expressed in transfected cells
T2 sequence (P21462 1-350): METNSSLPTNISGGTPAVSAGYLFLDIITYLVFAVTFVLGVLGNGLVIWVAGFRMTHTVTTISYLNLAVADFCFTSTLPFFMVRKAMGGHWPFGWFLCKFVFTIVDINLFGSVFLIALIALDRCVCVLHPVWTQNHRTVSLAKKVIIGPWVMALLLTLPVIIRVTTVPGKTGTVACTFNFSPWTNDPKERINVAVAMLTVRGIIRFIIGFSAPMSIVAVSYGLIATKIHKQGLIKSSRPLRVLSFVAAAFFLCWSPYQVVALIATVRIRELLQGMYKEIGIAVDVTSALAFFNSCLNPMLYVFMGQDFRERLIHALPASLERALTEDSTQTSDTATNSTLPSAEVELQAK
Put plainly: Inhibition of fMLF-induced [Ca2+]i flux in FPR1-HL60 cells. The class given is cell-based. To be noted: 10 min preincubation, 5 nM fMLF; N.A. = no activity at < 50 µM; read-out: FPR1/FPR2 Agonist-Induced Δ[Ca^2+]i FPR1-HL60 IC50. As to the method: as §1, §2, §3

Setting [1] is: Homo sapiens, elevation of [Ca2+]i, Fluo-4, N.A. = no activity was found at concentration < 50 µM, read-out: EC50, effect on [Ca^2+]i flux in human neutrophils.
Setting [2] is: reciprocal of EC50 in human neutrophils, inactive compounds assigned zero, read-out: 1/[EC50] (converted).

Like-named read-outs stand apart in the source and are kept apart here.

With `O=C(CC12CC3CC(CC(C3)C1)C2)N1CCOCCOCCN(C(=O)CC23CC4CC(CC(C4)C2)C3)CCOCC1` [Compound 15, N,N’-bis[2-(1-adamantyl)acetyl]-4,10-diaza-15-crown-5], the melting point fell in the range of 72 to 76 °C. For the same molecule, the IC50 at FPR2 worked out at 7.2 ± 1.7 µM. In the data set on human neutrophils (Homo sapiens), the Emax was 110%. Moreover, in the data set with human neutrophils (setting [1]), the EC50 was 4.7 ± 1.5 µM. In the data set with human neutrophils (setting [2]), the EC50 is 4.7 µM. The IC50 at FPR1 is 4.8 ± 0.9 µM.
With `O=C(N1CCOCCOCCOCCN(C(=O)C23CC4CC(CC(C4)C2)C3)CCOCC1)C12CC3CC(CC(C3)C1)C2` [Compound 14, N,N’-bis[1-oxo-1-(1-adamantyl)methyl]-4,10-diaza-18-crown-6], the IC50 at FPR2 is 8.3 ± 2.3 µM; at FPR1, 11.6 ± 2.1 µM. The Emax in the data set on human neutrophils (Homo sapiens) was 25 to 50%. Further, the figures for the EC50 with human neutrophils (setting [1]) and in the data set on human neutrophils (setting [2]) were 9.5 ± 2.7 µM and 9.5 µM, respectively.
On to `O=C(CC12CC3CC(CC(C3)C1)C2)N1CCOCCOCCN(C(=O)CC23CC4CC(CC(C4)C2)C3)CCOCCOCC1` [Compound 17, N,N’-bis[2-(1-adamantyl)acetyl]-4,13-diaza-18-crown-6], for which the IC50 on FPR2 is 7.6 ± 1.9 µM; on FPR1 it was 3.7 ± 0.7 µM. For the same molecule, the EC50 in the data set on human neutrophils (setting [1]) is 15.9 ± 2.5 µM; in the data set with human neutrophils (setting [2]) it was 15.9 µM.
Consider `O=C(N1CCOCCOCCN(C(=O)C23CC4CC(CC(C4)C2)C3)CCOCC1)C12CC3CC(CC(C3)C1)C2` [Compound 13, N,N’-bis[1-oxo-1-(1-adamantyl)methyl]-4,10-diaza-15-crown-5], for which the IC50 at FPR2 was 32.6 ± 4.5 µM; at FPR1 it was 16.5 ± 3.2 µM. Further, in the data set with human neutrophils (Homo sapiens), the Emax is 25 to 50%. Moreover, the EC50 in the data set with human neutrophils (setting [1]) is 6.9 ± 2.1 µM; in the data set with human neutrophils (setting [2]) it was 6.9 µM.
